From patent US9688709B2, “Phosphaplatins and their use for treatment of cancers” (OHIO UNIVERSITY, priority 2010, dated 2017)
Several values for one entry are separate records, joined by “and”; a condition that tells them apart may be missing. Equal entries are not always repeated.

Legend:
[1] = system: breast cancer cell line HCC1806; experiment: 144 hour exposure IC50, HCC1806; format: cell-based; details: HCC1806, 144 hours exposure
Method: (§1) Additionally these isomeric compounds were also tested by exposing them for 144 hours in the following cell lines: UMSCC10b, Panc-1, UMSCC15s, A2780/C30 and HCC1806.

[2] = system: PC-3, human metastatic prostate cancer cells; experiment: CyQUANT cell proliferation assay, PC-3; format: cell-based; details: PC-3, 72-hour treatment
From the text: (§2) In these experiments, desired number of cells were exposed to phosphaplatins of different concentrations for 72 hr. before measuring the DNA content. Because the DNA content is proportional to the number of surviving cells, the assay provides a quantitative measure of proliferating cells. The technique is described in detail in Jones et al., “Sensitive determination of cell number using the CyQUANT cell proliferation assay,” J. Immunol. Methods, vol. 254, pp. 85-98 (2001).
(§3) In TABLES 1-5, except where actual error values are given, each reported value is assumed to have an error not greater than ±15% of the reported value; and unless otherwise specified, the data were obtained from clonogenic assays.

[3] = system: pancreatic cell line Panc-1; experiment: 144 hour exposure IC50, Panc-1; format: cell-based; details: Panc-1, 144 hours exposure
Method: as §1

[4] = system: U251, human glioblastoma cancer cells; experiment: CyQUANT cell proliferation assay, U251; format: cell-based; details: U251, 72-hour treatment
From the text: as §2, §3

[5] = system: A549, human lung adenocarcinoma cancer cells; experiment: CyQUANT cell proliferation assay, A549; format: cell-based; details: A549, 72-hour treatment
From the text: as §2, §3

[6] = system: OVCAR-10, human ovarian cancer resistant to cisplatin treatment; experiment: Clonogenic assay, OVCAR-10 cells; format: cell-based; details: OVCAR-10, 24 hours treatment
Method: (§4) To determine the relative activities of the phosphaplatins of formulas (I)-(VI), each stereoisomer was tested through in vitro clonogenic assays using human ovarian cancer cells, human colon cancer cells, and human head-and-neck cancer cells. […] Cells were cultured on monolayer using RPMI 1640 supplemented with 10% fetal bovine serum, 2 mM glutamine, 0.25 units/mL insulin and penicillin/streptomycin (100 units/mL) in a 37° C. incubator continuously gassed with 5% CO2. Cells were subcultured using 0.0625% trypsin in HBSS to maintain cells in exponential cell growth.
(§5) Half-maximal inhibitory concentration (IC50) values were determined using a clonogenic assay or a CyQUANT® cell proliferation assay. In the clonogenic assay, for example, 500-700 A2780 cells from a single cell suspension were plated onto 60 mm petri plates 24 hours before treatment with the platinum compounds to permit cell attachment. On the day of treatment with the platinum compounds described in the above Synthesis Examples, the medium was decanted and was replaced with the appropriate concentration of phosphaplatin compounds (from 50 nM to 75 μM) at three different time points, and the treated cells were placed back into the 37° C. incubator for 24 hours. Triplicate plates were set up for each platinum compound concentration. After the 24-hour treatment, the medium containing the platinum compounds was decanted and was replaced with fresh medium. These plates were returned to the 37° C. incubator for 7 days for colony formation.
as §3
(§6) In further tests, cells were treated with the platinum compounds continuously for 7 days. Colonies were fixed and stained using 2% crystal violet in 4% formaldehyde. Colonies containing more than 50 cells were scored. The number of scored colonies from the triplicate plates was averaged, and this number was divided by the number of cells plated to obtain a value for the fraction of cells forming colonies. These values for fraction of cells forming colonies then were corrected for plating efficiency by dividing the fraction by the number of cells forming colonies in plates that were not treated with platinum compounds. […] Similar data for OVCAR-10 are shown in FIG. 3, comparing (1R,2R)-pyrodach-2 (RD2), (1R,2R)-pyrodach-4 (RD4), trans-(±)-pyrodach-2 (T-D2), and trans-(±)-pyrodach-4 (T-D4).

[7] = system: OVCAR-5, advanced human ovarian cancer cells; experiment: Clonogenic assay, OVCAR-5 cells; format: cell-based; details: OVCAR-5, 24 hours treatment
Method: as §4
(§7) Half-maximal inhibitory concentration (IC50) values were determined using a clonogenic assay or a CyQUANT® cell proliferation assay. In the clonogenic assay, for example, 500-700 A2780 cells from a single cell suspension were plated onto 60 mm petri plates 24 hours before treatment with the platinum compounds to permit cell attachment. […]
(§8) In further tests, cells were treated with the platinum compounds continuously for 7 days. […] Colonies containing more than 50 cells were scored. The number of scored colonies from the triplicate plates was averaged, and this number was divided by the number of cells plated to obtain a value for the fraction of cells forming colonies. […]

[8] = system: SKMEL-2, human skin melanoma cancer cells; experiment: CyQUANT cell proliferation assay, SKMEL-2; format: cell-based; details: SKMEL-2, 72-hour treatment
From the text: as §2, §3

[9] = system: OVCAR-8, human ovarian cancer cells with dysfunctional p53; experiment: CyQUANT cell proliferation assay, OVCAR-8; format: cell-based; details: OVCAR-8, 72-hour treatment
From the text: as §2, §3

[10] = system: OVCAR-10, human ovarian cancer resistant to cisplatin treatment; experiment: CyQUANT cell proliferation assay, OVCAR-10; format: cell-based; details: OVCAR-10, 72-hour treatment
From the text: as §2, §3

[11] = system: head and neck cancer cell line UMSCC10b; experiment: 144 hour exposure IC50, UMSCC10b; format: cell-based, human
Method: as §1

[12] = system: A2780, epithelial human ovarian cancer; experiment: Clonogenic assay, A2780 cells; format: cell-based
Method: as §4
as §5, with “and the treated cells were placed back into the 37° C. incubator for 24 hours.” left out, “After the 24-hour treatment, the medium containing the platinum compounds was decanted and was replaced with fresh medium.” left out
as §3, §6

[13] = system: UMSCC10b/15s, cisplatin-resistant human head-and-neck cancer cell line; experiment: Clonogenic assay, UMSCC10b/15s cells; format: cell-based; details: 7-day treatment
Method: as §4, §7, §8

[14] = system: A2780/C30, epithelial human ovarian cancer resistant to 30 μM cisplatin and 100 μM carboplatin; experiment: Clonogenic assay, A2780/C30 cells; format: cell-based; details: A2780/C30, 1 hour treatment
Method: as §4
as §5, with “and the treated cells were placed back into the 37° C. incubator for 24 hours.” left out
as §3, §6

[15] = system: Ovarian tumor; experiment: Ovarian tumor inflicted SCID mice, tumor growth and log cell kill; format: in vivo
Method: Ovarian tumor inflicted SCID mice were treated with trans-(±)-pyrodach-2 and trans-(±)-pyrodach-4 at various doses up to 40 mg/kg, and tumor growth was monitored up to six weeks or until the tumor size became so large that these animals were sacrificed. The tumor growth or regression by the phosphaplatin-treated mice was then compared with cisplatin-treated mice (7 mg/kg) and carboplatin-treated mice (60 mg/kg). Three doses of platinum compounds were administered on alternate days when the tumor grew to a size of at least 100 mm^3 size. Gross and net log cell kill values were then calculated using the formulas:
[formula] [formula] where T and C are median times in days to grow tumor to a specified size, and Td is the median time in days to double the size of the tumor in control animals.

[16] = system: human ovarian cancer OVCAR-10 xenograft; experiment: In vivo efficacy, OVCAR-10 mouse xenograft; parameters: species or system mice; details: 60 mg/kg qodx3, time to tumor size 1000 mm^3, compared with control
Method: Stable human clonal ovarian cancer cell lines OVCAR-10 and head and neck cancer UMSCC10b were grown separately in cell culture until 80-90% confluency was reached. Trypsin (GIBCO/BRL, Grand Island, N.Y.) was used to detach adherent cells. Trypsinized cells were thoroughly washed with PBS (Phosphate Buffered Saline) to remove trypsin. Efficacy of phosphaplatin compounds were evaluated by subcutaneously implanting human OVCAR-10 and UMSCC-10b xenograft in SCID Hairless OutBred, SHO-Prkdc^scidHr^hr, (Charles River Labs, Wilmington, Mass.) mice, NIH (NIH III: NIHBNX-F; NIHS-Lystbg Foxnlnu Btkxid, 4-week old female, Taconic (Rensselaer, N.Y.) mice.
Female SCID/NIH mice 4-5 weeks old were acclimated for one week before initiation of efficacy trials. Cancer cells were re-suspended in PBS and all mice except for negative control mice were injected subcutaneously with from 1×10^6 cells/0.10 mL to 5×10^6 cells/0.10 mL in PBS. The tumor size was evaluated as a function of time. The mice were examined daily for tumor growth. Tumors were measured using digital calipers. The tumor volume was calculated by the formula (W^2×L)/2, where W is the tumor measurement at the widest point, and L is the tumor dimension at the longest point, where the volume of the tumor in mm^3 is equivalent to the weight in mg.
After approximately 2 weeks of the subcutaneous injection of cancer cells, the tumors that had reached a distinguishable tumor sizes (approximately 100 mm^3 to 200 mm^3), phosphaplatin compounds of desired doses were administered intra-peritoneally. These administrations were done one time on day 1, once on day 3, and once on day 5.
Each group of xenograft mice was treated with phosphaplatin compounds, and a matched set was treated with vehicle/placebo (PBS solution) and mock injection (as a control for stress response). […] The xenograft SCID mice/NIH were monitored every day for any adverse events in their health by measuring weight loss/gain and food consumption. Measurements were stopped and the study was ended when the tumor size exceeded 3000 mm^3. […]

[17] = Maximum tolerated dose toxicity in ICR (CD-1) mice; format: in vivo; details: dose of 60 mg/kg
Method: Escalating doses were administered from 10 mg/kg to 100 mg/kg in 4-5 week-old female ICR (CD-1) mice, Taconic (Rensselaer, N.Y.). The mice had body weights between 15 g and 24 g. The mice were injected with one of the phosphaplatins every other day in a three-dose regimen. Total body-weight loss of 20% or more, unthrifty appearance, failure to gain weight, other observable health issues, departures from normal behaviors, or death, were considered an adverse event.

[18] = system: VEGFR; experiment: Western blot protein expression, VEGFR; format: in vivo; details: treated mice, exposure 1 hour to 12 hours
Method: (§9) Following 12% SDS-PAGE electrophoresis, proteins were transferred to a PVDF membrane using 100 V for 1.5 hours at 4° C. Membranes were washed with 0.05% TWEEN-20 and Tris-buffered saline (TBST) solution and blocked with 5% non-fat dry milk and 1% BSA. The membrane was incubated with a 1:25,000 dilution of primary antibody of the protein of interest over night at 4° C. Membranes were washed with 0.05% TBST followed by incubating in the corresponding HRP-conjugated antibody (1:40,000 dilution). The proteins were visualized using ECL-Advance chemiluminescent system (Amersham-GE Healthcare Biosciences, Pittsburgh, Pa.).
(§10) The phosphaplatins activate a number of proapototic and tumor suppression genes such as FAS, PTEN, PUMA, BAX and others. Experiments through Western Blots confirm high levels of protein expressions transcribed by these genes. […] Likewise, BCL2 was down regulated as much as 70% by RR-pyrodach-2 and RR-pyrodach-4. Additionally, FAS, FADD, and platinum compound were co-localized in the lipid rafts. These activations are also associated with the increased expression of Sphingomyelinase (Smase), as verified by the increased protein expression of SMase.

[19] = system: BAX; experiment: Western blot protein expression, BAX; format: in vivo; details: treated mice, exposure 1 hour to 12 hours
Method: as §9, §10

[20] = system: PUMA; experiment: Western blot protein expression, PUMA; format: in vivo; details: treated mice, exposure 1 hour to 12 hours
Method: as §9, §10

[21] = system: FAS; experiment: Western blot protein expression, FAS; format: in vivo; details: treated mice, exposure 1 hour to 12 hours
Method: as §9, §10

[22] = 40 mg/kg, three doses on alternate days

Molecule | IC50 [2] | IC50 [4] | IC50 [5] | IC50 [6] | IC50 [8] | IC50 [9] | IC50 [10] | IC50 ([12]; A2780, 1 hour treatment) | IC50 ([12]; A2780, 24 hours treatment) | IC50 [14] | also measured
NC1CCCCC1N.O=P([O-])(O)OP(=O)([O-])O.[Pt+2] (racemic) [trans-(±)-pyrodach-2, trans-(±)-1,2-cyclohexanediamine(pyrophosphato) platinum(II)] | 24.5 µM | 10.1 µM | 11.1 µM | 4.6 µM | 8.3 µM | 9.4 µM | 11.8 µM | 22 ± 4 µM | 2.4 ± 0.2 µM | 48 ± 5 µM | IC50 [1]: > 30 µM; IC50 [3]: 18.5 µM; IC50 [7]: 12.2 µM; IC50 [11]: 8.9 µM; IC50 [13]: 5 µM
N.N.O=C([O-])C1(C(=O)[O-])CCC1.[Pt+2] [carboplatin] |  |  |  | 26.7 µM |  |  |  | 90 µM | > 60 µM | > 200 µM | population died ([15]; 60 mg/kg dose): more than 50%; log cell kill values ([15]; 60 mg/kg, three doses on alternate days): less than 2; percent increased life-span (% ILS) [16]: about 125%; death [17]: 33%
trans-(±)-1,2-cyclohexanediamine-trans-dihydroxo(pyrophosphato) platinum(IV) [trans-(±)-pyrodach-4] | 20 µM | 14.6 µM | 12.2 µM | 14.4 µM | 14.6 µM | 12.3 µM | 23.2 µM | 180 µM and 170 µM |  | 155 ± 20 µM | gross log cell kill [15, 22]: greater than 3; log net cell kill [15, 22]: greater than 2; down regulation of VEGFR [18]: up to 50%; upregulation of BAX [19]: up to 4 fold; upregulation of PUMA [20]: up to 5 fold; upregulation of FAS [21]: up to 25 fold
